Key:
[1] = GI S9 stability (Ex. Z), cyno intestinal S9; type: in vitro ADME; details: cynomolgus monkey, pooled intestinal S9 fractions; cyno intestinal S9, 1.0 mg/mL protein, 2 μM substrate, pH 7.4; read-out: GIS9 Cyno T½ (per Ex. Z)
Experimental: Example Z: GI S9 stability data:
Stock solutions of test compounds in dimethyl sulfoxide (DMSO) having a final concentration of 10 mM were prepared and used in all experiments. Sekisui XenoTech (Kansas City, KS) provided pooled intestinal S9 fractions. All other chemicals were purchased from Sigma-Aldrich (St. Louis, MO) or VWR (West Chester, PA). Internal Standard/Quench (IS/Q) used to stop reactions was 100 nM labetalol in (by volume) methanol (10%) and acetonitrile (90%).
Stability in Intestinal S9 Fractions: Duplicate aliquots of test compound or positive control substrate were added to S9 stock diluted with phosphate buffered saline (137 mM NaCl, 2.7 mM KCl, 10 mM phosphate buffer), pH 7.4, to obtain a protein concentration of 1.0 mg/mL. The metabolic reactions were initiated by the addition of the substrates to the S9 reaction mixture to a final concentration of 2 μM. At 0, 10, 20, 30, 60 and 120 min, 25 μL aliquots of the reaction mixture were transferred to plates containing 225 μl of IS/Q solution. After quenching, the plates were centrifuged at 3000×g for 30 minutes. 150 μL aliquots of each supernatant were dried down then reconstituted with 300 μL water. Aliquots (10 μL) of the prepared samples were analyzed on a Thermo Q-Exactive mass spectrometer as described below.
Liquid Chromatography—Mass Spectrometry: Quantification of test compounds and control substrate was performed by analyte/internal standard peak area ratio (PAR) values measured on a Thermo Q-Exactive mass spectrometer coupled to a Dionex UltiMate 3000 HPLC with a Leap Technologies HTC PAL autosampler. The column used for analysis was a Waters Acquity BEH C18 (1.7 μm particle size, 2.1×50 mm). Mobile phase A consisted of 0.1% (v/v) formic acid in water. Mobile phase B consisted of 0.1% (v/v) formic acid in acetonitrile. Elution of analytes was achieved by a series of linear gradients varying the proportions of A and B. The mass spectrometer was calibrated on a weekly basis and mass tolerance of 5 ppm was used.
Metabolic stabilities in S9 fractions were determined by measuring the rates of disappearance of test compound and positive control substrate.
Data (% of substrate remaining) were plotted on a semi-log scale and fitted using an exponential decline model:
Where Ct—% of substrate remaining at time=t; C0—% of substrate remaining at time=0; t—time; T½—half-life The Half-life (T½) is determined by the following equation: […]
Assuming a first-order reaction, the slope (k) is extrapolated from the aforementioned plotted data.

[2] = test system: Respiratory syncytial virus recombinant with luciferase (RSV-Luc5) in NHBE cells; test: NHBE RSV-Luc5 384-well Assay (EC50 RSVFLUC NHBE-384, Ex. U); type: cell-based; details: human respiratory syncytial virus, 72 h, read-out: EC50 RSV FLUC NHBE 384 (per Ex. U)
Description: Example U. NHBE RSV-Luc5 384-well Assay (EC50 RSVFLUC NHBE-384)
Normal Human Bronchial Epithelial (NHBE) cells were purchased from Lonza (Walkersville, MD Cat #CC2540) and maintained in BEGM Bronchial Epithelial Cell Growth Medium BulletKit (Lonza CC-3170).
Cells were thawed, expanded, and were used for experiments at passage 2. Respiratory syncytial virus recombinant with luciferase (RSV-Luc5) (≥1×10^7 Infectious Units/ml (IU/ml) determined by TCID50) was purchased from Microbiologics (Saint Cloud, MN). Viral replication was determined in NHBE cells in the following manner.
Compounds are prepared in 100% DMSO in 384-well polypropylene plates (Greiner, Monroe, NC, Cat #784201) with 8 compounds per plate in grouped replicates of 4 at 10 serially diluted concentrations (1:3). The serially diluted compounds were transferred to low dead volume Echo plates (Labcyte, Sunnyvale, CA, Cat #LP-0200).
The test compounds were spotted to 384-well assay plates (Greiner, Monroe, NC, Cat#781091) at 200 nL per well. NHBE cells were harvested and suspended in BEGM Bronchial Epithelial Cell Growth Medium BulletKit and seeded to the pre-spotted assay plates at 5,000 cells per well in 30 μL. RSV-Luc5 virus was diluted in BEGM Bronchial Epithelial Cell Growth Medium BulletKit at 500,000 Infectious Units (IU) per mL and 10 μL per well was added to the assay plates containing cells and compounds, for an MOI of 1. The assay plates were incubated for 3 days at 37° C. and 5% CO2. At the end of incubation, One-Glo reagent (Promega, Madison, WI, Cat #E6120) was prepared. The assay plates and One-Glo reagent were equilibrated to room temperature for at least 15 minutes. 40 μL per well of One-Glo reagent was added and the plates were incubated at room temperature for 15 minutes before reading the luminescence signal on an EnVision multimode plate reader (Perkin Elmer, Waltham, MA). Remdesivir was used as positive control and DMSO was used as negative control. Values were normalized to the positive and negative controls (as 0% and 100% replication, respectively) and data was fitted using non-linear regression analysis by Gilead's dose response tool. The EC50 value for each compound was defined as the concentration reducing the viral replication by 50%.

SMILES | half-life at 2 μM [1] [min] | EC50 [2] [µM]
N#C[C@]1(COC(=O)CC2CCC2)O[C@@H](c2ccc3c(N)ncnn23)[C@H](O)[C@@H]1O [Compound 16, ((2R,3S,4R,5S)-5-(4-aminopyrrolo[2,1-f][1,2,4]triazin-7-yl)-2-cyano-3,4-dihydroxytetrahydrofuran-2-yl)methyl 2-cyclobutylacetate] | 3 | 9.53
N#C[C@]1(COC(=O)C2CCCC2)O[C@@H](c2ccc3c(N)ncnn23)[C@H](O)[C@@H]1O [Compound 18, ((2R,3S,4R,5S)-5-(4-aminopyrrolo[2,1-f][1,2,4]triazin-7-yl)-2-cyano-3,4-dihydroxytetrahydrofuran-2-yl)methyl cyclopentanecarboxylate] | 3 | 8.99

From patent US20240199676A1, “ANTIVIRAL COMPOUNDS AND METHODS OF MAKING AND USING THE SAME” (Gilead Sciences, Inc., priority 2022, published 2024)
